Assay results published in ChEMBL document CHEMBL1201862, “PubChem BioAssay data set” (2004).
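Grown in 96-well plates, cells were treated for 48 hours with each compound at five concentrations. Insufficient inhibition: endpoint recorded as highest concentration tested. At the GI50, growth is halved.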 Activity calls are given as the source filed them. Cut-off read from the data, not from the text of the source: active = GI50 up to about 1.1 µM and inactive = higher.

Key:
Assay in all cases: NCI tumour cell line growth inhibition, 48 h
MDA-MB-435 = test system: MDA-MB-435
UACC-257 = test system: UACC-257
TK-10 = test system: TK-10
MDA-MB-231 = test system: MDA-MB-231
SK-MEL-2 = test system: SK-MEL-2
MCF7 = test system: MCF7
NCI-H23 = test system: NCI-H23
NCI/ADR-RES = test system: NCI/ADR-RES
Hs-578T = test system: Hs-578T
A498 = test system: A498
SNB-75 = test system: SNB-75
HT-29 = test system: HT-29
HOP-92 = test system: HOP-92
COLO 205 = test system: COLO 205
SK-OV-3 = test system: SK-OV-3
IGROV-1 = test system: IGROV-1
SW-620 = test system: SW-620
UACC-62 = test system: UACC-62
HL-60 = test system: HL-60

| SMILES | GI50 (MDA-MB-435) | GI50 (UACC-257) | GI50 (TK-10) | GI50 (MDA-MB-231) | GI50 (SK-MEL-2) | GI50 (MCF7) | GI50 (NCI-H23) | GI50 (NCI/ADR-RES) | GI50 (Hs-578T) | GI50 (A498) | GI50 (SNB-75) | GI50 (HT-29) | GI50 (HOP-92) | GI50 (COLO 205) | GI50 (SK-OV-3) | GI50 (IGROV-1) | GI50 (SW-620) | GI50 (UACC-62) | GI50 (HL-60) |
| --- | --- | --- | --- | --- | --- | --- | --- | --- | --- | --- | --- | --- | --- | --- | --- | --- | --- | --- | --- |
| N#Cc1c(NC(=O)CCC(=O)O)ccc2ccccc12 | > 100 µM (inactive) | > 100 µM (inactive) | > 100 µM (inactive) | > 100 µM (inactive) | > 100 µM (inactive) | > 100 µM (inactive) | > 100 µM (inactive) | > 100 µM (inactive) | > 100 µM (inactive) | > 100 µM (inactive) | 64.1 µM (inactive) | > 100 µM (inactive) | > 100 µM (inactive) | > 100 µM (inactive) | > 100 µM (inactive) | > 100 µM (inactive) | > 100 µM (inactive) | > 100 µM (inactive) |  |
| O=C(C=P(c1ccccc1)(c1ccccc1)c1ccccc1)c1ccc(-c2cccs2)cc1 | 3.08 µM (inactive) | 1.8 µM (inactive) | 3.08 µM (inactive) | 9.79 µM (inactive) | 1.39 µM (inactive) | 3.41 µM (inactive) | 8.91 µM (inactive) | 4.48 µM (inactive) | 18.5 µM (inactive) | 0.9 µM (active) | 3.56 µM (inactive) | 3.75 µM (inactive) | 3.48 µM (inactive) | 0.671 µM (active) | 5.66 µM (inactive) | 7.73 µM (inactive) | 4.33 µM (inactive) | 1.64 µM (inactive) | 2.11 µM (inactive) |
| OC(Cc1cc(CC(O)(C(F)(F)F)C(F)(F)F)nc(CC(O)(C(F)(F)F)C(F)(F)F)c1)(C(F)(F)F)C(F)(F)F | 2.39 µM (inactive) | 2.05 µM (inactive) | 3.99 µM (inactive) | 1.92 µM (inactive) | 2.02 µM (inactive) | 0.826 µM (active) | 0.475 µM (active) | 1.66 µM (inactive) | 1.03 µM (active) | 1.32 µM (inactive) | 1.92 µM (inactive) | 1.63 µM (inactive) | 0.541 µM (active) | 0.918 µM (active) | 3.96 µM (inactive) | 0.764 µM (active) | 0.574 µM (active) | 0.337 µM (active) | > 10 µM (inactive) |
| Cn1c(COC(=O)NC2CCCCC2)c(COC(=O)NC2CCCCC2)c2ccc3cc(Cl)c(Cl)cc3c21 | 17.6 µM (inactive) | 14.5 µM (inactive) | 16.7 µM (inactive) | 10.2 µM (inactive) | 14.1 µM (inactive) | 4.03 µM (inactive) | 15.6 µM (inactive) | 53.1 µM (inactive) | 3.66 µM (inactive) | 12.7 µM (inactive) | 8.39 µM (inactive) | 27.5 µM (inactive) | 4.88 µM (inactive) | 11.7 µM (inactive) | 22 µM (inactive) | 17 µM (inactive) | 6.79 µM (inactive) | 11 µM (inactive) | 9.62 µM (inactive) |
| CCCCCc1cc2cc3c(c(O)c2c(=O)[nH]1)C1(CC3)C(=O)c2c(O)c3c(c(O)c2C1=O)C(=O)C(OC)=CC3=O (configuration not stated) | 1.49 µM (inactive) | 0.444 µM (active) |  | 0.479 µM (active) | 0.867 µM (active) | 0.311 µM (active) | 0.701 µM (active) | 1.17 µM (inactive) | 1.53 µM (inactive) | 2.31 µM (inactive) | 1.58 µM (inactive) | 0.718 µM (active) | 0.263 µM (active) | 0.206 µM (active) | 2.61 µM (inactive) | 1.28 µM (inactive) | 0.442 µM (active) | 1.24 µM (inactive) | 0.421 µM (active) |
| CN(C)c1ccc(/C=C(\NC(=O)c2ccccc2)C(=O)NC(CCC(=O)O)C(=O)O)cc1 (configuration not stated) | > 100 µM (inactive) | > 100 µM (inactive) | > 100 µM (inactive) | > 100 µM (inactive) | > 100 µM (inactive) | > 100 µM (inactive) | > 100 µM (inactive) | > 100 µM (inactive) | > 100 µM (inactive) | > 100 µM (inactive) | > 100 µM (inactive) | > 100 µM (inactive) | > 100 µM (inactive) | > 100 µM (inactive) | > 100 µM (inactive) | > 100 µM (inactive) | > 100 µM (inactive) | > 100 µM (inactive) | > 100 µM (inactive) |
